Experimental findings from patent publication US8653095B2, “Small molecules with antimalarial activity” (Radix Pharmaceuticals, Inc., priority 2011, dated 2014) are described below.

Molecules are shown by their SMILES. “Also recorded” adds a separate entry of the source. Where two headings read alike, the source gives them in different places.

For series [1], the system named is chloroquine-resistant FVO strain of P. falciparum. Put plainly: Efficacy against blood stages of P. falciparum in Aotus monkeys. Type of series: in vivo. To be noted: oral for 3 days. How it is done: In Vivo Efficacy Studies in Aotus Monkey Model. The monkeys selected for the study had active infections of the chloroquine-resistant FVO strain of P. falciparum. Once parasitemias reached 5,000/μl (or as deemed appropriate by the attending veterinarian), they were treated orally with Formula B or Formula C at 2, 4, 8, or 16 mg/kg/day for 3 days. For compound Formula B, the dosage needed to cure 50% of animals was 4 mg/kg/day and the dosage needed to cure 100% of animals was 16 mg/kg/day. For compound Formula C, the 50% curative dose was 2 mg/kg/day and the 100% curative dose was 8 mg/kg/day (Table 7).
Malaria-naive Panamanian owl monkeys (Aotus lemurinus lemurinus) were used as hosts for chioroquine-resistant P. falciparum. The chloroquine-resistant Vietnam Smith strain was used in the initial experiments. In subsequent studies, a recrudescent isolate from a Vietnam Smith strain infected Aotus monkey treated with chloroquine was used.
The inoculum size produced a parasitemia of at least 5×10^3/mm^3 by the fifth day postinoculation, at which time treatment was begun. Stock solutions of water-soluble drug were prepared at appropriate concentrations and maintained at 4° C. during the course of treatment. A suspension of water-insoluble drugs was prepared in 0.3% methylcellulose just prior to use. All drugs were administered by gastric intubation in a volume of 7.0 ml, followed by a 7.0-mi rinse with either water or 0.3% methylcellulose. Test drug was given orally for either three or seven consecutive days. In several experiments, the putative resistance modulator was given three times per day (8:00 AM, noon, and 4:00 PM) for three or seven days.
Giemsa-stained blood smears were prepared from all animals and examined daily beginning the day after inoculation until parasitemia was cleared and for at least seven days thereafter. At that time, blood films were examined twice a week up to 100 days after treatment. Thick blood films were considered negative if no parasites were seen after examination for at least five min. Ten or less parasites on a thick blood film were recorded as <10. Parasitemia was enumerated and expressed as number of parasites/mm^3. Treated animals were observed twice a day for signs of drug toxicity, as evidenced by abnormal behavior, anorexia, diarrhea, or vomiting. Necropsies were per formed on all animals that died. In conducting the research described in this report, the investigators adhered to the Guide for the Care and Use of Laboratory Animals, as promulgated by the National Research Council.
The outcome of each infection was compared with untreated controls and monkeys treated with chloroquine. […]

In a further series the test system is P. falciparum TM4. The series is described as follows: In vitro blood stage antimalarial efficacy, [3H]hypoxanthine uptake, strain TM4. Type of series: cell-based. To be noted: Plasmodium falciparum; read-out: IC50. Here is the method:
(§1) In Vitro Blood Stage Antimalarial Efficacy Evaluation. New compounds were tested against a panel of strains of P. falciparum.
(§2) Test compounds were initially dissolved in DMSO and diluted 400 fold in RPMI 1640 culture medium supplemented with 25 mM Hepes, 32 mM NaHCO3 and 10% Albumax I (Gibco, NY). These solutions were subsequently serially diluted two-fold with a Beckman Biomek® 1000 Robot (Fullerton, Calif.) over 11 different concentrations. The parasites were exposed to serial dilutions of each compound for 48 hrs and incubated at 37° C. with 5% O2, 5% CO2 and 90% N2 prior to the addition of [^3H]hypoxanthine. After a further incubation of 18 hrs, parasite DNA was harvested from each microtiter well using Packard Filtermate™ 196 Harvester (Meriden, Conn.) onto glass filters. Uptake of [^3H]hypoxanthine was measured with a Packard TopCount Liquid Scintillation Counter (Packard Instrument Co.).

For series [2], the system named is P. falciparum African NF54 strain. The series is described as follows: In vivo efficacy in immunocompromised BXN mice infected with P. falciparum NF54. The settings on record: Plasmodium falciparum, 96 h, oral once daily for 4 days. An excerpt:
(§3) Antimalarial efficacy data was obtained by evaluating new compounds in two rodent models: (I) Swiss mice infected with rodent malaria strain P. berghei; (II) Immunocompromised BXN mice infected with either the sensitive P. falciparum African NF54 strain or the multi-drug resistant P. falciparum Thailand T24 strain.

Series [3] has as its system multi-drug resistant P. falciparum Thailand T24 strain. Put plainly: In vivo efficacy in immunocompromised BXN mice infected with P. falciparum T24. The settings on record: Plasmodium falciparum, 96 h, oral once daily for 4 days.
Source text: as §3

The subject of the next series is Plasmodium cynomolgi. The series is described as follows: Radical curative activity in relapsed Rhesus monkeys. The class given is in vivo. To be noted: for Monkeys cured: co-administered with chloroquine; for Days post-treatment (relapse) / Results (radical curative test): with CQ 10 mg/kg/day for 7 days, one value per monkey. An excerpt:
Compounds with antihypnozoite activity will delay the relapse or radically cure the infection. […] Relapse was expected in the control group. Relapse in the treated group indicates failure of the test compounds. […] After standard treatment, blood smears were monitored daily for 4 consecutive days of negative results and 2 times weekly for 2 weeks.

A short description of another series: in vivo. To be noted: Sprague-Dawley, rat, po; for MTD at 2 weeks: MTD (maximum tolerated dose).
In another series the test system is rodent P. berghei. To be noted: for Primary therapeutic index / Secondary therapeutic index: Sprague-Dawley, rat, in vivo, po; for MCureD (minimum curative dose): rodent P. berghei, administered orally. How it is done:
Antimalarial potency was measured by determination of the MCD (minimum clearance dose), a commonly used efficacy measurement. The primary therapeutic indices, which were obtained by using the MCDs as the effective parameters, were calculated. A secondary therapeutic indices measure of antimalarial potency was determined by use of the dose for the MCureD (minimum curative dose).

The next series concerns P. berghei NK-65. The series is described as follows: In vivo efficacy in Swiss mice infected with P. berghei. The settings on record: Plasmodium berghei.
In the next series the test system is P. falciparum PH3. The series is described as follows: In vitro blood stage antimalarial efficacy, [3H]hypoxanthine uptake, strain PH3. Type of series: cell-based. The settings on record: Plasmodium falciparum; read-out: IC50. Here is the method:
as §1, §2

In a further series the test system is P. falciparum V1S. The series is described as follows: microbe, parasite or virus in culture. The class given is cell-based. The settings on record: Plasmodium falciparum. Here is the method:
as §1, §2

[4] abbreviates: Drug 2 at 15 mg/kg PO 1 daily for 3 days.
Where [5] appears, read: Drug 2 at 30 mg/kg PO 1 daily for 3 days.
[6] abbreviates: 96 h, P. berghei NK-65, Swiss mice, oral once daily for 4 days, read-out: ED50.
[7] abbreviates: read-out: ED50 (the dose leading to 50% parasite growth inhibition compared to the blank control).

By IC50 is commonly meant the concentration that gives 50% inhibition. The ED50 is the dose that gives a 50% effect, or the effect in half of the subjects. Usually NOAEL stands for the highest dose or exposure tested at which no adverse effect was seen. As a reminder, the MTD is the largest dose that counted as tolerated. With `CC[C@@H](N)[C@H](O)[C@H](O)[C@H](COC)[C@@H]1CC[C@@]23CC24c2nc5ccc(OC)cc5cc2C(=O)N[C@H]4CN13` (stereo partly shown) [Formula B], in series [1], the “Dosage needed to cure 50% of animals (50% curative dose)” value amounted to 4 mg/kg/day. Moreover, the “Dosage needed to cure 100% of animals (100% curative dose)” value in series [1] is listed as 16 mg/kg/day. In addition, the half-maximal inhibitory concentration (IC50) with P. falciparum TM4 turned out to be 0.23 ± 0.04 nM; in the series on P. falciparum PH3, 0.17 ± 0.04 nM; in the series on P. falciparum V1S, 0.26 ± 0.05 nM. The median effective dose (ED50) was 0.24 mg/kg in series [2], 0.27 mg/kg in series [3], 0.13 mg/kg with P. berghei NK-65 (setting [6]) and under 1 mg/kg in the series with P. berghei NK-65 (setting [7]). The results for the Monkeys cured entry with Plasmodium cynomolgi (15 mg/kg/day level) and in the series on Plasmodium cynomolgi (30 mg/kg/day level) were “one out of two monkeys” and “all monkeys”, respectively. Further, the “Days post-treatment (relapse)” value in the series with Plasmodium cynomolgi (setting [4]) was 42 days and no relapse; with Plasmodium cynomolgi (setting [5]), “no relapse”. Also, the “Results (radical curative test)” value in the series with Plasmodium cynomolgi (setting [4]) is “delayed relapse; also recorded: radical curative”; with Plasmodium cynomolgi (setting [5]) it was “radical curative”. Further, in the series “in vivo”, the NOAEL at 2 weeks is over 100 mg/kg/day. In “in vivo”, this molecule had an MTD at 2 weeks of over 500 mg/kg. The molecule further gave a Primary therapeutic index with rodent P. berghei of 237. The molecule further showed a Secondary therapeutic index in the series with rodent P. berghei of 53. Further, the “MCureD (minimum curative dose)” value in the series with rodent P. berghei is on record as 14.2 mg/kg.
`COC[C@@H]([C@@H](O)[C@@H](O)[C@H](N)Cc1ccccc1)[C@@H]1CC[C@@]23CC24c2nc5ccc(OC)cc5cc2C(=O)N[C@H]4CN13` (stereo partly shown) [Formula C]: in series [1], the “Dosage needed to cure 50% of animals (50% curative dose)” value was 2 mg/kg/day. For the same molecule, in [1], the “Dosage needed to cure 100% of animals (100% curative dose)” value came out at 8 mg/kg/day. Further, the IC50 with P. falciparum TM4 stood at 0.31 ± 0.07 nM; in the series with P. falciparum PH3, 0.19 ± 0.04 nM; in the series on P. falciparum V1S it was 0.12 ± 0.03 nM. For the same molecule, the ED50 in [2] was 0.2 mg/kg; in [3], 0.18 mg/kg; in the series on P. berghei NK-65 (setting [6]) it was 0.11 mg/kg; in the series on P. berghei NK-65 (setting [7]), under 1 mg/kg. In addition, the Monkeys cured entry with Plasmodium cynomolgi (15 mg/kg/day level) is reported as “one out of two monkeys”; in the series on Plasmodium cynomolgi (30 mg/kg/day level), “all monkeys”. Further, the “Days post-treatment (relapse)” value is 53 days and no relapse in the series with Plasmodium cynomolgi (setting [4]); “no relapse” with Plasmodium cynomolgi (setting [5]). Moreover, the “Results (radical curative test)” value was “delayed relapse; also recorded: radical curative” in the series with Plasmodium cynomolgi (setting [4]) and “radical curative” with Plasmodium cynomolgi (setting [5]). The same molecule showed an NOAEL at 2 weeks in “in vivo” of over 100 mg/kg/day. In addition, the MTD at 2 weeks in “in vivo” is over 500 mg/kg. The Primary therapeutic index in the series on rodent P. berghei came to 290. The molecule further registered a Secondary therapeutic index in the series on rodent P. berghei of 72. Moreover, the “MCureD (minimum curative dose)” value in the series on rodent P. berghei came out at 9.82 mg/kg.
